Results taken from patent US12516052B2, “Methyltransferase 5 (PRMT5) inhibitors and methods of treatment” (THE TRUSTEES OF INDIANA UNIVERSITY, priority 2016, dated 2026).
Entries after “also recorded” stand apart in the source; their conditions may differ.

Key:
[1] = system: PANC1 pancreatic cancer cells; assay: MTT cell viability assay in PANC1 cells; type: cell-based; details: for IC50: 4 days treatment
Experimental: (§1) The PRMT5 inhibitory activity of the compounds from the screen was confirmed using both AlphaLISA and an MTT [(3-(4,5-dimethylthiazolyl-2)-2,5-diphenyltetrazolium bromide)] assay (PerkinElmer, Waltham, MA). For the MTT assay, cells were seeded at 90% confluence in 96-well plates and titrated with different dosages of compound (IIa) for 4 days. Media was then removed and 100 μl of MTT (Sigma-Aldrich, St. Louis, MO) was added per well. Cells were incubated for 2 hours at 37° C. before adding 100 μl of DMSO to each well and quantified with the SYNERGY™ H1 Multi-Mode Reader (BioTek Instruments Inc., Winooski, VT).
(§2) In order to identify small-molecule PRMT5 inhibitors with increased efficacy compared to compound (IIa), lead optimization of compound (IIa) was performed. Briefly, the pyrozolo-pyrimidine core was maintained and peripheral groups were either added or modified. Compounds were tested to identify PRMT5 inhibitors and their corresponding IC50 values using an MTT assay. For the MTT assay cells (HT-29 or PANC1) were seeded at 90% confluence in 96-well plates and titrated with different dosages of compound (IIa) for 4 days. Media was then removed and 100 μl of MTT (Sigma-Aldrich) was added per well. Cells were incubated for 2 hours at 37° C. before adding 100 μl of DMSO to each well and quantified with the Synergy H1 Multi-Mode Reader (BioTek Instruments Inc., Winooski, VT).

HT-29 colon cancer cells = assay: MTT cell viability assay in HT-29 cells; type: cell-based; details: for IC50: 4 days treatment
Experimental: as §1, §2

[2] = Body weight of xenografted NSG mice during treatment; type: in vivo; details: 20 mg/kg intraperitoneally 3×/week, over the course of treatment
Experimental: NSG (NOD scid gamma) mice were obtained from the In Vivo Therapeutics Core at Indiana University School of Medicine. After acclimation for 7 days, NSG mice (6-8 weeks old) were xenografted with mycoplasma-free PANC1 or HT29 cells subcutaneously (1×10^7 PANC1 or 3×10^6 HT29 cells used per mouse in 0.2 ml of a 1:1 mix of phosphate-buffered saline and MATRIGEL™) (BD Biosciences, San Jose, CA). Mice were randomized when tumor volumes reached about 100 mm^3. Mice were treated with either vehicle control or 20 mg/kg of compound (Ia) (drug stock dissolved in 1:1 CREMOPHOR™:ethanol solution) intraperitoneally 3 times per week. Tumor volumes and body weights were measured twice a week. The study was performed in accordance with the guidelines and standards of the Institutional Animal Care and Use Committee (IACUC). […] NSG (NOD scid gamma) mice were obtained from the In Vivo Therapeutics Core at Indiana University School of Medicine. After acclimation for 7 days, NSG mice (6-8 weeks old) were xenografted with mycoplasma-free PANC1 or HT29 cells subcutaneously (1×10^7 PANC1 or 3×10^6 HT29 cells used per mouse in 0.2 ml of a 1:1 mix of phosphate-buffered saline and MATRIGEL™) (BD Biosciences, San Jose, CA). Mice were randomized when tumor volumes reached about 100 mm^3. Mice were treated with either vehicle control or 20 mg/kg of compound (IIa) (drug stock dissolved in 1:1 CREMOPHOR™:ethanol solution) intraperitoneally 3 times per week. Tumor volumes and body weights were measured twice a week. The study was performed in accordance with the guidelines and standards of the Institutional Animal Care and Use Committee (IACUC).

HT29 cells = assay: HT29 subcutaneous xenograft tumor efficacy study in NSG mice; type: in vivo; details: 20 mg/kg intraperitoneally 3×/week, vs vehicle control, n=4
Experimental: (§3) NSG (NOD scid gamma) mice were obtained from the In Vivo Therapeutics Core at Indiana University School of Medicine. After acclimation for 7 days, NSG mice (6-8 weeks old) were xenografted with mycoplasma-free PANC1 or HT29 cells subcutaneously (1×10^7 PANC1 or 3×10^6 HT29 cells used per mouse in 0.2 ml of a 1:1 mix of phosphate-buffered saline and MATRIGEL™) (BD Biosciences, San Jose, CA). Mice were randomized when tumor volumes reached about 100 mm^3. Mice were treated with either vehicle control or 20 mg/kg of compound (Ia) (drug stock dissolved in 1:1 CREMOPHOR™:ethanol solution) intraperitoneally 3 times per week. Tumor volumes and body weights were measured twice a week. The study was performed in accordance with the guidelines and standards of the Institutional Animal Care and Use Committee (IACUC). […] NSG (NOD scid gamma) mice were obtained from the In Vivo Therapeutics Core at Indiana University School of Medicine. After acclimation for 7 days, NSG mice (6-8 weeks old) were xenografted with mycoplasma-free PANC1 or HT29 cells subcutaneously (1×10^7 PANC1 or 3×10^6 HT29 cells used per mouse in 0.2 ml of a 1:1 mix of phosphate-buffered saline and MATRIGEL™) (BD Biosciences, San Jose, CA). Mice were randomized when tumor volumes reached about 100 mm^3. […] Tumor volumes and body weights were measured twice a week. […]

PANC1 cells = assay: PANC1 subcutaneous xenograft tumor efficacy study in NSG mice; type: in vivo; details: 20 mg/kg intraperitoneally 3×/week, vs vehicle control, n=4
Experimental: as §3

[3] = system: CRC cells (HT29, HCT116 and DLD1); assay: MTT cell viability assay in CRC cell lines; type: cell-based; details: for cell viability in CRC cells (HT29, HCT116, DLD1), MTT: increasing concentrations; for IC50: range over HT29, HCT116 and DLD1
Experimental: (§4) The PRMT5 inhibitory activity of the compounds from the screen was confirmed using both AlphaLISA and an MTT [(3-(4,5-dimethylthiazolyl-2)-2,5-diphenyltetrazolium bromide)] assay (PerkinElmer, Waltham, MA). For the MTT assay, cells were seeded at 90% confluence in 96-well plates and titrated with different dosages of compound (IIa) for 4 days. Media was then removed and 100 μl of MTT (Sigma-Aldrich, St. Louis, MO) was added per well. Cells were incubated for 2 hours at 37° C. before adding 100 μl of DMSO to each well and quantified with the SYNERGY™ H1 Multi-Mode Reader (BioTek Instruments Inc., Winooski, VT). The expression of PRMT5 was examined in pancreatic ductal adenocarcinoma cells at multiple stages of disease progression and in multiple colorectal cancer cell lines. Pancreatic control (HPNE) and cancer cell lines (PANC1, MiaPaCa2 and AsPC1) were grown in Dulbecco's Modified Eagle Medium (DMEM) (GE Healthcare, Little Chalfont, UK), supplemented with 1% of penicillin/streptomycin, 10% fetal bovine serum (FBS). Colon control (FHC) and cancer (HT29, HCT116, and DLD1) cell lines were maintained in RPMI 1640 Medium (Roswell Park Memorial Institute Medium) (GE Healthcare, Little Chalfont, UK), containing 1% penicillin/streptomycin and 10% FBS, while FHC cells were cultured under the same condition with further addition of 25 mM HEPES (4-(2-hydroxyethyl)-1-piperazineethanesulfonic acid), 10 ng/ml cholera toxin, 0.005 mg/ml insulin, 0.005 mg/ml transferring, and 100 ng/ml hydrocortisone. All cell lines were cultured at 37° C. under 5% CO2. The PDAC and CRC cell lines described above were treated with increasing concentrations of compound (IIa) or the commercially available PRMT5 inhibitor EPZ015666 [drawing 12] and quantified for cell viability using the MTT assay described above. […] A soft agar experiment was also performed to determine the effect of compound (IIa) on colony growth.

PRMT5 = target: T1, PRMT5 (Homo sapiens, UniProt O14744); assay: AlphaLISA PRMT5 methylation assay (biotin-histone H4R3, SAM); type: biochemical; details: PRMT5 methylation of histone H4R3, in vitro; read-out: IC50 using AlphaLISA
T1 construct: Flag; made in house; host or cells: 293 cells
T1 sequence (O14744 whole entry): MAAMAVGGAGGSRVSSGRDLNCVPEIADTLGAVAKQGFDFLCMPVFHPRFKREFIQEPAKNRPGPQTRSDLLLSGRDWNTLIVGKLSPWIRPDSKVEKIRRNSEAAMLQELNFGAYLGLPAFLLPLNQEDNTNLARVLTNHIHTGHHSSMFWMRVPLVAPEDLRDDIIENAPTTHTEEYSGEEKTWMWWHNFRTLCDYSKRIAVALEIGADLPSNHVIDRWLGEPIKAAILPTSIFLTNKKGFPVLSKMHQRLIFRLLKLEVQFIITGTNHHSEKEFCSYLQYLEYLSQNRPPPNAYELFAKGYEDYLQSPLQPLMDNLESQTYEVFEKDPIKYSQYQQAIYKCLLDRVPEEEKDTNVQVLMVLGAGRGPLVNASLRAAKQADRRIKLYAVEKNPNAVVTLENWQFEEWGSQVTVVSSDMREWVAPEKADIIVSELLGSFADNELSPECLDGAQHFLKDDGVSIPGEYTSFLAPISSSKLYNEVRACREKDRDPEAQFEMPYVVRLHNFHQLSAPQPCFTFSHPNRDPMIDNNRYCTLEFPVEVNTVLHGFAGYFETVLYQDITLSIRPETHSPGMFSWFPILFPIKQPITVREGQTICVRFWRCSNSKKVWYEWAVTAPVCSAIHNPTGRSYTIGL
T1 sequence (Q9BQA1 whole entry partner): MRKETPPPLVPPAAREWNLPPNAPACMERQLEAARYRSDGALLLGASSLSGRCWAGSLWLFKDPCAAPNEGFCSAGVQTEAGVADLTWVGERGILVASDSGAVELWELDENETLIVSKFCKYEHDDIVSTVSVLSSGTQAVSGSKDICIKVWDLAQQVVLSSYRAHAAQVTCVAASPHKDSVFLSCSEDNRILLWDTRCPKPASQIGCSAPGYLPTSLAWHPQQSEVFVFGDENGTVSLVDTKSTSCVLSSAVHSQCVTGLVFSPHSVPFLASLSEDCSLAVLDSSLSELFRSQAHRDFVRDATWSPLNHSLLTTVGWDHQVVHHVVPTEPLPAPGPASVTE
Experimental: FIG. 1 is a schematic illustration of the AlphaLISA technique for the identification of small-molecule PRMT5 inhibitors. Biotinylated substrate (histone H4) is incubated with PRMT5 and methyl donor, S-adenosyl-1-methionine (SAM). PRMT5 symmetrically dimethylates the third arginine (R3) on biotin-H4 to form biotin-H4R3me2. This product is recognized by Acceptor beads specific for this methylation site. Donor beads have a streptavidin tag and bind to biotin-H4. Interaction between the Acceptor and Donor beads emits a chemiluminescent signal, which is detected by an ENVISION™ Reader (PerkinElmer, Waltham, MA). The methylation activity of PRMT5 is proportional to the intensity of this signal.
In order to identify PRMT5 inhibitors, the AlphaLISA technique (PerkinElmer, Waltham, MA) was adapted to an assay that could precisely quantify PRMT5 dimethylation of its substrate in a 384-well HTS platform (FIG. 1). The AlphaLISA high-throughput screen comprises incubating a biotinylated substrate (e.g., histone H4), PRMT5, and a methyl donor (e.g., S-adenosyl-1-methionine (SAM)); PRMT5 dimethylates the biotinylated substrate and the dimethylated biotinylated substrate is recognized by Acceptor beads specific for the methylation site. Donor beads comprising a tag (e.g., streptavadin) bind to the biotinylated substrate, and interaction between the Acceptor beads and Donor beads emits a signal (e.g., chemiluminescent signal), which can be detected. The methylation activity of PRMT5 is proportional to the intensity of the signal.
In one embodiment of the method used to identify the compounds disclosed herein, PRMT5 enzyme was purified with anti-Flag-M2 beads (Sigma-Aldrich, St. Louis, MO) from 293 cells overexpressing the Flag-PRMT5 protein (Wei et al., Proc Natl Acad Sci USA, 2013; 110: 13516-13521). The enzyme prep was diluted at 1:10 in assay buffer (30 mM Tris, pH 8.0, 1 mM DTT, 0.01% BSA, 0.01% Tween-20) before use. […] The plates were read using an ENVISION™ Reader (PerkinElmer, Waltham, MA).

[4] = system: PDAC cells (PANC1, MiaPaCa2 and AsPC1); assay: MTT cell viability assay in PDAC cell lines; type: cell-based; details: for cell viability in PDAC cells (PANC1, MiaPaCa2, AsPC1), MTT: increasing concentrations; for IC50: range over PANC1, MiaPaCa2 and AsPC1
Experimental: as §4

NF-κB [5] = assay: NF-κB luciferase assay in HT29 cells; type: cell-based; details: increasing concentrations
Source text: (§5) Previously, it was discovered that PRMT5 activates NF-κB through methylation of its p65 subunit in HEK293 cells (Wei et al., Proc Natl Acad Sci USA, 2013; 110: 13516-13521; Wei et al., Cell Cycle, 2013; 13: 32-41). As shown in FIGS. 11A and 11B, overexpression of PRMT5 enhances NF-κB activity, while PRMT5 knockdown causes the opposite effect in both PANC1 (FIG. 11A) and HT-29 (FIG. 11B) cells. To determine if compound (IIa) decreases NF-κB activity, cells transfected with a NF-κB luciferase construct were treated with increasing concentrations of compound (IIa) or the control compound EPZ015666.

NF-κB [6] = assay: NF-κB luciferase assay in PANC1 cells; type: cell-based; details: increasing concentrations
Source text: as §5

Clc1ccc(-n2ncc3c(NCC4CCCO4)nc(Cl)nc32)cc1 (centres unmarked) [compound (Ig)]
IC50 [1]: 11 µM | IC50 (HT-29 colon cancer cells): 7 µM

Clc1ccc(-n2ncc3c(NCCN4CCCC4)nc(Cl)nc32)cc1 [compound (Ib)]
IC50 ([1]; Homo sapiens, PANC-1, 96 h): 11 µM

Cc1ccc(-n2ncc3c(NCc4cccnc4)nc(Cl)nc32)cc1 [compound (Ia)]
cell viability in PDAC cells (PANC1), MTT ([1]; increasing concentrations): decreased significantly | body weight, HT29 model [2]: did not visibly affect the body weight; also recorded: no significant changes in body weight | body weight, PANC1 model [2]: did not visibly affect the body weight; also recorded: no significant changes in body weight | IC50 (HT-29 colon cancer cells): 2.2 µM | IC50 (HT-29 colon cancer cells; Homo sapiens, HT-29, 96 h): 2 µM | cell viability in CRC cells (HT29), MTT (HT-29 colon cancer cells; increasing concentrations): decreased significantly | tumor growth (tumor volume), HT29 xenograft (HT29 cells): significant tumor inhibition effect; also recorded: inhibition of tumor growth | tumor growth (tumor volume), PANC1 xenograft (PANC1 cells): significant tumor inhibition effect; also recorded: inhibition of tumor growth

Clc1ccc(-n2ncc3c(NCC4CCCO4)nc(Cl)nc32)cc1 (centres unmarked) [compound (If)]
IC50 ([1]; Homo sapiens, PANC-1, 96 h): 8 µM | IC50 (HT-29 colon cancer cells; Homo sapiens, HT-29, 96 h): 7 µM

O=C(NC[C@H]1C[C@@H]2CC[N@@]1C[C@@H]2CN1CCC(Cc2ccccc2)CC1)c1ccc2c(c1)OCO2 [compound (IIIa)]
cell viability in CRC cells (HT29, HCT116, DLD1), MTT [3]: decreased significantly | IC50 [3]: 5 to 11 µM | IC50 (PRMT5): ~1.5 µM | cell viability in PDAC cells (PANC1, MiaPaCa2, AsPC1), MTT [4]: decreased significantly | IC50 [4]: 8.5 to 12.5 µM

COc1cc(C)c(Oc2cc(C)cc(O)c2O)c(O)c1 [compound (IVa)]
cell viability in CRC cells (HT29, HCT116, DLD1), MTT [3]: decreased significantly | IC50 [3]: 35 to 50 µM | IC50 (PRMT5): ~16.5 µM | cell viability in PDAC cells (PANC1, MiaPaCa2, AsPC1), MTT [4]: decreased significantly | IC50 [4]: 22 to 51 µM

O=C(NC[C@H](O)CN1CCc2ccccc2C1)c1cc(NC2COC2)ncn1 [EPZ015666, reference compound]
cell viability in CRC cells (HT29, HCT116, DLD1), MTT [3]: lower efficacy | IC50 [3]: 180 to 195 µM | cell viability in PDAC cells (PANC1, MiaPaCa2, AsPC1), MTT [4]: lower efficacy | IC50 [4]: 50 to 95 µM | NF-κB activation (luciferase), HT29 (NF-κB [5]): much higher concentration; also recorded: needed a higher concentration | NF-κB activation (luciferase), PANC1 (NF-κB [6]): much higher concentration; also recorded: needed a higher concentration
